Measurements taken from US8748471B2, “2-alkyl-cycloalk(en)yl-carboxamides” (priority 2004, dated 2014).
Where two headings read alike, the source gives them in different places.

Key:
[1] = log P determination by HPLC on reverse-phase column (C 18), acidic range pH 2.3 (EEC Directive 79/831 Annex V. A8); format: physicochemical; settings: for logP: Table 1 (I-c); for chromatographic logP: reverse-phase HPLC column (C 18)
Experimental: The stated log P values were determined in accordance with EEC Directive 79/831 Annex V. A8 by HPLC (High Performance Liquid Chromatography) on a reverse-phase column (C 18). Temperature: 43° C. Mobile phases for the determination in the acidic range (pH 2.3): 0.1% aqueous phosphoric acid, acetonitrile; linear gradient from 10% acetonitrile to 90% acetonitrile. Calibration was carried out using unbranched alkan-2-ones (having 3 to 16 carbon atoms) with known log P values (determination of the log P values by the retention times using linear interpolation between two successive alkanones).

[2] = test system: Podosphaera leucotricha; test: Podosphaera test (apple)/protective; format: in vivo; settings: protective, application rate 100 g/ha, evaluation 10 days after inoculation, 0% = control, 100% = no infection
Experimental: (§1) To produce a suitable preparation of active compound, 1 part by weight of active compound is mixed with the stated amounts of solvents and emulsifier, and the concentrate is diluted with water to the desired concentration.
To test for protective activity, young plants are sprayed with the preparation of active compound at the stated application rate. After the spray coating has dried on, the plants are inoculated with an aqueous spore suspension of Podosphaera leucotricha. The plants are then placed in a greenhouse at about 23° C. and a relative atmospheric humidity of about 70%.
(§2) Evaluation is carried out 10 days after the inoculation. 0% means an efficacy which corresponds to that of the control, whereas an efficacy of 100% means that no infection is observed.

[3] = test system: Venturia inaequalis; test: Venturia test (apple)/protective; format: in vivo; settings: protective, application rate 100 g/ha, evaluation 10 days after inoculation, 0% = control, 100% = no infection
Experimental: as §1
To test for protective activity, young plants are sprayed with the preparation of active compound at the stated application rate. After the spray coating has dried on, the plants ate inoculated with an aqueous conidia suspension of the apple scab pathogen Venturia inaequalis and then remain in an incubation cabinet as about 20° C. and 100% relative atmospheric humidity for 1 day. The plants are then placed in a greenhouse at about 21° C. and a relative atmospheric humidity of about 90%.
as §2

[4] = test system: Botrytis cinerea; test: Botrytis test (bean)/protective; format: in vivo; settings: protective, application rate 500 g/ha, evaluation 2 days after inoculation (size of infected areas), 0% = control, 100% = no infection
Experimental: as §1
To test for protective activity, young plants are sprayed with the preparation of active compound at the stated application rate. After the spray coating has dried on 2 small pieces of agar colonized by Botrytis cinerea are placed onto each leaf. The inoculated plants are placed in a dark chamber at about 20° C. and 100% relative atmospheric humidity.
2 days after the inoculation, the size of the infected areas on the leaves is evaluated. 0% means an efficacy which corresponds to that of the control, whereas an efficacy of 100% means that no infection is observed.

[5] = test system: Puccinia recondita; test: Puccinia test (wheat)/protective; format: in vivo; settings: 240 h, protective, application rate 500 g/ha, evaluation 10 days after inoculation, 0% = control, 100% = no infection, read-out: Efficacy in %
Experimental: (§3) To produce a suitable preparation of active compound, 1 part by weight of active compound is mixed with the stated amounts of solvent and emulsifier, and the concentrate is diluted with water to the desired concentration.
To test for protective activity, young plants are sprayed with the preparation of active compound at the stated application rate. After the spray coating has dried on, the plants are sprayed with a conidia suspension of Puccinia recondita. The plants remain in an incubation cabinet at 20° C. and 100% relative atmospheric humidity for 48 hours. The plants are then placed in a greenhouse at a temperature of about 20° C. and a relative atmospheric humidity of 80%.
as §2

[6] = test system: Alternaria solani; test: Alternaria test (tomato)/protective; format: in vivo; settings: protective, application rate 750 g/ha, evaluation 7 days after inoculation, 0% = control, 100% = no infection
Experimental: as §3
To test for protective activity, young tomato plants are sprayed with the preparation of active compound at the stated application rate. 1 day after the treatment, the plants are inoculated with a spore suspension of Alternaria solani and then remain at 100% relative atmospheric humidity and 20° C. for 24 h. The plants then remain at 96% relative atmospheric humidity and a temperature of 20° C.
Evaluation is carried out 7 days after the inoculation. 0% means an efficacy which corresponds to that of the control, whereas an efficacy of 100% means that no infection is observed.

[7] = pH 2.3, HPLC C18, 43° C., main diastereomer or, where several values in a cell, the individual diastereomers
[8] = pH 2.3, Table 1 (I-c), pH 2.3, HPLC C18, 43° C., main diastereomer or, where several values in a cell, the individual diastereomers, read-out: logP

log P (pH 2.3) ([1]; Example 1, pH 2.3, two values = mixture of diastereomers) | logP [1, 7] | chromatographic logP [1, 8] | chromatographic logP ([1]; pH 2.3, text of Example 1, pH 2.3, two values = mixture of diastereomers, read-out: log P (pH 2.3)) | SMILES | Efficacy in % [2] | Efficacy in % [3] | Efficacy in % [4] | pest or weed control at 500 g/ha [5] | Efficacy in % [6]
4.53 | 4.53 | 4.45 | 4.45 | Cc1nc(C(F)F)c(C(=O)NC2CCCCC2C(C)CC(C)C)s1 (centres unmarked) [I-c-4, 4-(difluoromethyl)-N-[2-(1,3-dimethylbutyl)cyclohexyl]-2-methyl-1,3-thiazole-5-carboxamide] | 100% | 98% | 95% | 100% | 100%
– | 4.23 | 4.12 | – | CC(C)CC(C)C1CCCCC1NC(=O)c1nccnc1Cl (centres unmarked) [I-c-5] | 100% | 100% | 99% | 100% | 100%
– | 4.28 | 3.88 | – | CC(C)CC(C)C1CCCCC1NC(=O)c1cn(C)nc1C(F)F (centres unmarked) [I-c-7] | 100% | 100% | 94% | 100% | 100%
